Experimental data: publication PMC7804203, “Targeting adaptor protein SLP76 of RAGE as a therapeutic approach for lethal sepsis” (Nature Communications, 2021)
Values joined by “and” are separate entries in the source; they are usually repeats but may differ in a detail not shown here. Identical values can stand only once.

Legend:
Assay type in all cases: cell-based
[1] = test system: IKKα/β phosphorylation, RAW264.7 cells; assay: Western blot, AGE-induced IKKα/β activation after TAT-fused peptides; conditions: AGEs+, relative to Ctrl without AGEs = 1
Description: (§1) Cultured cells in 6-well plates were harvested, washed twice with PBS, and lysed for 30 min on ice in 150 μl of cell lysis buffer (#9803) from CST (Boston, MA, USA) containing 1 mM PMSF and 2 μg/ml leupeptin. Proteins were quantified with the BCA method. Protein samples were resolved by 10% SDS-PAGE, transferred to a nitrocellulose (NC) membrane (#GE10600002), and blocked for 1 h with 5% nonfat milk in Tris-buffered saline containing 0.1% Tween 20 (TBST) at room temperature. After incubation with a specific primary antibody overnight at 4 °C, the membrane was washed with TBST three times. Then, the membrane was incubated with a secondary antibody for 1 h at room temperature. Enhanced chemiluminescence (ECL) (#32109, Thermo Fisher Scientific, Waltham, MA, USA) was used to visualize the protein bands, and images were acquired in a ChemiDoc™ Imaging System (Bio-Rad, Hercules, CA, USA). Each experiment was repeated at least three times.

[2] = test system: ERK1/2 phosphorylation, RAW264.7 cells; assay: Western blot, AGE-induced ERK1/2 activation after TAT-fused peptides; conditions: AGEs+, relative to Ctrl without AGEs = 1
Description: as §1

[3] = test system: p38 MAPK phosphorylation, HEK293 cells; assay: Western blot, p38 MAPK phosphorylation in transfected HEK293 cells treated with AGEs; conditions: Fig. 4b, AGEs 100 μg/ml, 15 min, single runs Exp1-Exp3
Description: (§2) HEK293 cells (3 × 10^5) were cultured to a confluence of 80–90% in a 60 mm dish. Then, cells were transfected with 2 μg of total DNA by using 6 μl GeneJammer reagent (#204130, Agilent, Santa Clara, CA, USA) mixed with Opti-MEM (200 μl final volume) and were then incubated for 5 min at room temperature. RAW264.7 cells (1 × 10^5) were transfected with control siRNA, siRNA targeting AGER or siRNA targeting SLP76 using HiPerFect reagent (#301705, Qiagen, Hilden, Germany). SiRNA diluted in HiPerFect transfection reagent was premixed with Opti-MEM medium at room temperature for 5 min and incubated with cells in a 24-well plate for 48 h.
as §1

[4] = test system: ERK1/2 phosphorylation, RAW264.7 cells; assay: Western blot, ERK1/2 phosphorylation in RAW264.7 cells treated with AGEs; conditions: 15 min (P < 0.05)
Description: as §1

[5] = test system: IKKα/β phosphorylation, HEK293 cells; assay: Western blot, IKKα/β phosphorylation in transfected HEK293 cells treated with AGEs; conditions: Fig. 4d, AGEs 100 μg/ml, 15 min, single runs Exp1-Exp3
Description: as §2, §1

[6] = test system: p38 MAPK phosphorylation, RAW264.7 cells; assay: Western blot, AGE-induced p38 MAPK activation after TAT-fused peptides; conditions: AGEs+, relative to Ctrl without AGEs = 1
Description: as §1

[7] = test system: p38 MAPK phosphorylation, RAW264.7 cells; assay: Western blot, p38 MAPK phosphorylation in RAW264.7 cells treated with AGEs; conditions: 15 min (P < 0.05)
Description: as §1

[8] = test system: JNKs phosphorylation, RAW264.7 cells; assay: Western blot, JNK phosphorylation in RAW264.7 cells treated with AGEs; conditions: AGEs 100 μg/ml; for JNK phosphorylation: Supplementary Fig. 4, single runs Exp1-Exp3
Description: as §1

[9] = test system: interaction between RAGE and SLP76 in HEK293 cells; assay: Co-IP of Flag-SLP76 with HA-RAGE (HA-tag antibody) in HEK293 cells treated with AGEs; conditions: Fig. 1c–e
Description: as §2
After transfection for 24 h, HEK293 cells were treated with AGEs at the indicated times and doses. Then, cells were collected and lysed with lysis buffer, and protein was quantitated with a bicinchoninic acid (BCA) kit (#23227, Thermo Fisher Scientific, Waltham, MA, USA). Total input protein (500 µg) was incubated with anti-FLAG M2 beads or anti-HA affinity gel overnight at 4 °C. After brief centrifugation, samples were washed five times with lysis buffer containing 0.1% Tween 20. Samples were then resolved by SDS-PAGE and subjected to western blotting with a specific antibody against the HA or Flag tag.

[10] = test system: ERK1/2 phosphorylation, HEK293 cells; assay: Western blot, ERK1/2 phosphorylation in transfected HEK293 cells treated with AGEs; conditions: Fig. 4c, AGEs 100 μg/ml, 15 min, single runs Exp1-Exp3
Description: as §2, §1

AGEs: AGEs-BSA (#2221-10) purchased from Biovision; advanced glycation end products, RAGE ligand
Relative IKKα/β phosphorylation, Supplementary figure 11e ([1]; Exp1): 3.559 | Relative IKKα/β phosphorylation, Supplementary figure 11e ([1]; Exp2): 4.547 | Relative IKKα/β phosphorylation, Supplementary figure 11e ([1]; Exp3): 6.152 | Relative ERK1/2 phosphorylation, Supplementary figure 11d ([2]; Exp1): 3.946 | Relative ERK1/2 phosphorylation, Supplementary figure 11d ([2]; Exp2): 5.325 | Relative ERK1/2 phosphorylation, Supplementary figure 11d ([2]; Exp3): 6.025 | phosphorylated p38 MAPK ([3]; RAGE overexpressed): 1.6247 and 1.965 and 1.83 | phosphorylated p38 MAPK ([3]; RAGE+SLP76 overexpressed): 2.026 and 2.548 and 2.612 | phosphorylated p38 MAPK ([3]; SLP76 overexpressed): 1.3753 and 1.591 and 1.725 | phosphorylated p38 MAPK ([3]; control vector): 1.2576 and 1.45 and 1.104 | Phosphorylation of ERK1/2 [4]: increased significantly | phosphorylated IKKα/β ([5]; RAGE overexpressed): 12.7634 and 9.791 and 10.05 | phosphorylated IKKα/β ([5]; RAGE+SLP76 overexpressed): 21.1403 and 18.74 and 17.6458 | phosphorylated IKKα/β ([5]; SLP76 overexpressed): 5.321 and 6.4 and 5.551 | phosphorylated IKKα/β ([5]; control vector): 8.805 and 7.3 and 6.5457 | Relative p38 MAPK phosphorylation, Supplementary figure 11c ([6]; Exp1): 2.6013 | Relative p38 MAPK phosphorylation, Supplementary figure 11c ([6]; Exp2): 2.501 | Relative p38 MAPK phosphorylation, Supplementary figure 11c ([6]; Exp3): 3.172 | Phosphorylation of p38 MAPK [7]: increased significantly | Phosphorylation of JNKs ([8]; 0-240 min, n=3): no significant difference between groups | JNK phosphorylation ([8]; 5 min): 0.9831 and 1.298 and 1.325 | JNK phosphorylation ([8]; 15 min): 1.062 and 0.8245 and 0.7215 | JNK phosphorylation ([8]; 30 min): 1.133 and 1.03 and 0.8721 | JNK phosphorylation ([8]; 60 min): 1.061 and 0.95 and 0.8845 | JNK phosphorylation ([8]; 90 min): 1.254 and 1.05 and 0.7684 | JNK phosphorylation ([8]; 120 min): 1.217 and 0.98 and 0.8649 | JNK phosphorylation ([8]; 240 min): 1.277 and 0.91 and 0.7954 | RAGE/SLP76 binding after exposure to AGEs [9]: dose- and time-dependent | phosphorylated ERK1/2 ([10]; RAGE overexpressed): 4.032 and 4.674 and 4.165 | phosphorylated ERK1/2 ([10]; RAGE+SLP76 overexpressed): 5.962 and 6.497 and 6.322 | phosphorylated ERK1/2 ([10]; SLP76 overexpressed): 3.146 and 2.87 and 3.315 | phosphorylated ERK1/2 ([10]; control vector): 3.0116 and 3.25 and 2.795
